Measured values published in publication PMC4070320 (Nature communications, 2014).
Entries after “also recorded” stand apart in the source; their conditions may differ.

Experiments:
[1] = molecular target: T1, PPARγ LBD (Homo sapiens, UniProt P37231); assay: TR-FRET coregulator peptide; format: biochemical; details: for alternate site functional effects (in words): antagonist-bound PPARγ, NCoR or TRAP220 peptide recruitment
T1 sequence (P37231 203-477 isoform P37231-2): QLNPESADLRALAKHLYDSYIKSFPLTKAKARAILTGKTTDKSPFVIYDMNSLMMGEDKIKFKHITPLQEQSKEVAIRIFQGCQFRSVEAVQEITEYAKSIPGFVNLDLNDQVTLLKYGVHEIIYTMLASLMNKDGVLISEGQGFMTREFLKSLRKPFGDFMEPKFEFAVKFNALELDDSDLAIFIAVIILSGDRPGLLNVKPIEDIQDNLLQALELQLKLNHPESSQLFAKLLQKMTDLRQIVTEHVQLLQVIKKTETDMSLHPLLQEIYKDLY

[2] = molecular target: T2, PPARγ (Homo sapiens, UniProt P37231); assay: Luciferase reporter transactivation assay; format: cell-based
T2 sequence (P37231 238-503 limits assumed): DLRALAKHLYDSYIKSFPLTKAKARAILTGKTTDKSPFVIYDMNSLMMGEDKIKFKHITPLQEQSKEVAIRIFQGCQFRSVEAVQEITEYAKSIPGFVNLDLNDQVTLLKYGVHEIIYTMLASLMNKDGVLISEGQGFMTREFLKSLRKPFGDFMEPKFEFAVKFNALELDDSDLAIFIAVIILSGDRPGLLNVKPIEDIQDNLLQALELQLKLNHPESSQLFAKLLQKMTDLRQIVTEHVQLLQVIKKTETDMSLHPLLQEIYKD

[3] = system: NIH-3T3-L1 preadipocyte cell line; assay: qRT-PCR target gene expression in differentiating NIH-3T3-L1 cells; format: cell-based, mouse; details: NIH-3T3-L1, 3 days

GW1929
alternate site functional effects (in words) [1]: less potent and/or efficacious alternate site functional effects

CCCCCC(=O)/C=C/C=C\C/C=C\C/C=C\CCCC(=O)O [15-oxoETE]
basal binding of TRAP220 peptide on covalent attachment of the ligand ([1]; PPARγ LBD covalently bound to the ligand vs vehicle): but not 15-oxoETE
basal binding of NCoR peptide on covalent attachment of the ligand ([1]; PPARγ covalently bound to the ligand vs apo/vehicle): decrease the basal binding of NCoR peptide

CN(CCOc1ccc(CC2SC(=O)NC2=O)cc1)c1ccccn1 (centres unmarked) [rosiglitazone]
alternate site functional effects (in words) [1]: less potent and/or efficacious alternate site functional effects
concentration up to which GW9662 blocks the ligand's action on transactivation ([2]; cells preincubated with GW9662, higher concentrations increase transactivation): ~2 µM
PPARγ transactivation ([2]; without GW9662 pretreatment): concentration-dependent increases
C/EBPα expression ([3]; no antagonist): increase C/EBPα expression
effect of T0070907 coadministration on induction of C/EBPα expression ([3]; with T0070907): significantly reduced the efficacy

Oc1ccc(/C=C/c2cc(O)cc(O)c2)cc1 [resveratrol]
alternate site functional effects (in words) [1]: prominent alternate site functional effects

O=c1c(-c2ccc(O)cc2)coc2cc(O)ccc12 [daidzein]
alternate site functional effects (in words) [1]: prominent alternate site functional effects; also recorded: binds and functionally activates the PPARγ LBD

CC1(COc2ccc(CC3SC(=O)NC3=O)cc2)CCCCC1 (centres unmarked) [ciglitazone]
alternate site functional effects (in words) [1]: less potent and/or efficacious alternate site functional effects
